Results published in patent EP0126813A1, “Process for preparing imidazole compounds” (Newport Pharmaceuticals International, Inc., priority 1983, dated 1984).

Legend:
[1] = test system: Lymphocyte; assay: LPS induced lymphocyte proliferation (mitogen induced lymphocyte proliferation); format: cell-based; conditions: for X̄ cpm: control 7044 cpm
Description: In Table 1 the effect of NPT 15459 on LPS Induced Proliferation is described.

[2] = test system: Lymphocyte; assay: Con A induced lymphocyte proliferation (mitogen induced lymphocyte proliferation); format: cell-based; conditions: for X̄ cpm: control 35,059 cpm
Description: In Table 1 the effect of NPT 15459 on con A Induced Proliferation is described. The procedure is described in Simon U.S. patent 4,221,909, column 24, line 12 to column 25, line 10.

[3] = Solubility (summary of chemical properties); format: physicochemical
[4] = test system: SRBC Induced Antibody Formation; assay: SRBC induced antibody formation; format: in vivo; conditions: for X̄ PFC/10^6 Cells: saline control 53
Description: In Table 2 the SRBC Induced Antibody Formation procedure employed was that shown in Simon EPO application 0036077 page 46.

[5] = Lymphocyte, 5.0 µg/ml, read-out: Percent Change from Control
[6] = Lymphocyte, 10.0 µg/ml, read-out: Percent Change from Control

- Solubility ([3]; HCl (Aq), acetic acid, methanol, ethanol): very soluble
- Solubility ([3]; benzene, water): insoluble
- Solubility ([3]; isopropanol): soluble
SMILES: CCCCCC[C@H]([C@H](C)O)n1cnc(C(N)=O)c1N (relative stereo) [NPT 15459, erythro-3-(2-hydroxy-3-nonyl)-4-amino-imidazole-5-carboxamide]
- X̄ cpm ([1]; 5.0 µg/ml): 4128 cpm
- X̄ cpm ([1]; 10.0 µg/ml): 2449 cpm
- X̄ cpm ([1]; .02 µg/ml): 6184 cpm
- X̄ cpm ([1]; .5 µg/ml): 6676 cpm
- inhibition at 5 µg/mL [1, 5]: 42%
- inhibition at 10 µg/mL [1, 6]: 66%
- inhibition at 0.02 µg/mL ([1]; Lymphocyte, .02 µg/ml, read-out: Percent Change from Control): 12%
- inhibition at 0.5 µg/mL ([1]; Lymphocyte, .5 µg/ml, read-out: Percent Change from Control): 6%
- X̄ cpm ([2]; 5.0 µg/ml): 20,095 cpm
- X̄ cpm ([2]; 10.0 µg/ml): 12,736 cpm
- X̄ cpm ([2]; .020 µg/ml): 35,747 cpm
- X̄ cpm ([2]; .500 µg/ml): 30,920 cpm
- inhibition at 5 µg/mL [2, 5]: 43%
- inhibition at 10 µg/mL [2, 6]: 65%
- inhibition at 0.02 µg/mL ([2]; Lymphocyte, .020 µg/ml, read-out: Percent Change from Control): -2%
- inhibition at 0.5 µg/mL ([2]; Lymphocyte, .500 µg/ml, read-out: Percent Change from Control): 12%
- Percent Change from Control ([4]; 5.0 mg/kg): +24%
- X̄ PFC/10^6 Cells ([4]; 5.0 mg/kg): 66 PFC/10^6 Cells
- Percent Change from Control ([4]; .05 mg/kg): +196%
- X̄ PFC/10^6 Cells ([4]; .05 mg/kg): 157 PFC/10^6 Cells
- Percent Change from Control ([4]; .5 mg/kg): +126%
- X̄ PFC/10^6 Cells ([4]; .5 mg/kg): 120 PFC/10^6 Cells
